Like-named read-outs stand apart in the source and are kept apart here.
What was measured:
[1] = system: fibrin-induced microglia activation; experiment: Image-based assay of fibrin-induced microglia activation (HTS and dose response); type: cell-based, rat; details: for inhibition at 10 µM: Rattus norvegicus, Microglia, read-out: Fibrin % inhibition
[2] = system: LPS-induced microglia activation; experiment: Image-based assay of LPS-induced microglia activation (HTS and dose response); type: cell-based, rat; details: for inhibition at 10 µM: Rattus norvegicus, Microglia, 48 h, read-out: LPS % inhibition
[3] = system: fibrin- and LPS-induced microglia activation; experiment: cells; type: cell-based, rat
primary rat microglia [4] = system: primary rat microglia;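 on Fibrin % cell toxicity: share of dead cells sized under 150 µm2 at 10 µM in fibrin-stimulated microglia HTS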
primary rat microglia [5] = system: primary rat microglia; remark: listed apart in the source;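 on Fibrin % cell toxicity: share of dead cells sized under 150 µm2 at 10 µM in fibrin-stimulated microglia HTS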
[6] = primary microglia HTS, fibrin stimulation, increased cell size (>800 μm^2) as marker of activation
[7] = primary microglia HTS, LPS stimulation, increased cell size (>800 μm^2) as marker of activation
[8] = quadrant by fibrin and LPS inhibition in HTS of 1907 compounds
[9] = primary microglia HTS, fibrin stimulation, activation = cell size >800 μm2
[10] = primary microglia HTS, LPS stimulation, activation = cell size >800 μm2

| Compound | Quadrant (FIG. 5b) [3, 8] | Fibrin % cell toxicity (primary rat microglia [4]; rat) [%] | LPS % cell toxicity (primary rat microglia [5]; rat) [%] | inhibition at 10 µM [1, 9] [%] | inhibition at 10 µM [2, 10] [%] | inhibition at 10 µM [1] [%] | inhibition at 10 µM [2] [%] | Quadrant (FIG. 5b) [3] | also measured |
| --- | --- | --- | --- | --- | --- | --- | --- | --- | --- |
| CN(C)c1ccc(C(=C2C=CC(=[N+](C)C)C=C2)c2ccc(N(C)C)cc2)cc1 [Gentian Violet] | Q2 | 38 | 73 | – | – | – | – | – | inhibition at 10 µM [1, 6]: 117%; inhibition at 10 µM [2, 7]: 118% |
| O=C(OCC(O)CO)c1ccccc1Nc1ccnc2cc(Cl)ccc12 (stereo not shown) [Glafenine] | Q4 | 1 | 0 | 8 | 18 | – | – | – | – |
| CCC1=C(C)CN(C(=O)NCCc2ccc(S(=O)(=O)NC(=O)N[C@H]3CC[C@H](C)CC3)cc2)C1=O [Glimepiride] | Q4 | 1 | 0 | 0 | 21 | – | – | – | – |
| N[C@@H](CCC(=O)N[C@@H](CS)C(=O)NCC(=O)O)C(=O)O [Glutathione] | – | 1 | 0 | – | – | -5 | 13 | Q4 | – |
| COC1=CC(=O)C[C@@H](C)[C@]12Oc1c(Cl)c(OC)cc(OC)c1C2=O [Griseofulvin] | Q4 | 1 | 0 | 9 | 13 | – | – | – | – |
| O=C(CCCN1CCC(O)(c2ccc(Cl)cc2)CC1)c1ccc(F)cc1 [Haloperidol] | – | 1 | 1 | – | – | -22 | 12 | Q4 | – |
| FC(F)(F)C(Cl)Br (stereo not shown) [Halothane] | Q4 | 1 | 0 | 17 | 17 | – | – | – | – |
| CC1CC(OC(=O)c2ccccc2O)CC(C)(C)C1 (stereo not shown) [Homosalate] | Q4 | 1 | 1 | -3 | 18 | – | – | – | – |
| NNc1nncc2ccccc12 [Hydralazine] | – | 1 | 0 | – | – | -13 | 22 | Q4 | – |
| Oc1ccc(O)cc1 [Hydroquinone] | – | 1 | 0 | – | – | 14 | 12 | Q4 | – |
| CC(=O)[C@]1(O)Cc2c(O)c3c(c(O)c2[C@@H](O[C@H]2C[C@H](N)[C@H](O)[C@H](C)O2)C1)C(=O)c1ccccc1C3=O.Cl [Idarubicin, Idarubicin Hydrochloride] | Q2 | – | – | – | – | – | – | – | Fibrin % inhibition [1, 6]: 106%; LPS % inhibition [2, 7]: 106%; Fibrin % cell toxicity (primary rat microglia [4]): 90%; LPS % cell toxicity (primary rat microglia [5]): 40% |
| COC1=C(OC)C(=O)C(CCCCCCCCCCO)=C(C)C1=O [Idebenone] | Q4 | 1 | 0 | -24 | 2 | – | – | – | – |
| CC(C)(C)NC(=O)[C@@H]1CN(Cc2cccnc2)CCN1C[C@@H](O)C[C@@H](Cc1ccccc1)C(=O)N[C@H]1c2ccccc2C[C@H]1O [Indinavir] | – | 1 | 0 | -22 | 5 | – | – | Q4 | – |
| COc1ccc2c(c1)c(CC(=O)O)c(C)n2C(=O)c1ccc(Cl)cc1 [Indomethacin] | Q4 | 0 | 0 | -56 | 13 | – | – | – | – |
| O=C(NCC(O)CO)c1c(I)c(C(=O)NCC(O)CO)c(I)c(N(CCO)C(=O)CO)c1I (stereo not shown) [Ioversol] | – | 1 | 1 | – | – | -1 | 18 | Q4 | – |
| CC(C)NNC(=O)c1ccncc1 [Iproniazid] | Q4 | 1 | 0 | -44 | 10 | – | – | – | – |
| CC(C)NCC(O)c1ccc(O)c(O)c1 (stereo not shown) [Isoprenaline] | Q4 | 0 | 0 | 29 | 37 | – | – | – | – |
| CC1=C(/C=C/C(C)=C/C=C/C(C)=C\C(=O)O)C(C)(C)CCC1 [Isotretinoin] | Q2 | 13 | 1 | – | – | – | – | – | inhibition at 10 µM [1, 6]: 112%; inhibition at 10 µM [2, 7]: 55% |
| NC[C@H]1O[C@H](O[C@H]2[C@H](O)[C@@H](O[C@H]3O[C@H](CO)[C@@H](O)[C@H](N)[C@H]3O)[C@H](N)C[C@@H]2N)[C@H](O)[C@@H](O)[C@@H]1O.O=S(=O)(O)O [Kanamycin Sulfate, Kanamycin A Sulfate] | – | – | – | – | – | – | – | Q4 | Fibrin % inhibition [1]: −13%; LPS % inhibition [2]: 20%; Fibrin % cell toxicity (primary rat microglia [4]): 0%; LPS % cell toxicity (primary rat microglia [5]): 1% |
| CC(=O)N1CCN(c2ccc(OCC3COC(Cn4ccnc4)(c4ccc(Cl)cc4Cl)O3)cc2)CC1 (stereo not shown) [Ketoconazole] | – | 0 | 0 | – | – | -57 | -1 | Q4 | – |
| N[C@@H](CC(=O)O)C(=O)O [L-aspartic Acid, Aspartic Acid (I)] | Q4 | – | – | – | – | – | – | – | Fibrin % inhibition [1, 9]: 5%; LPS % inhibition [2, 10]: 13%; Fibrin % cell toxicity (primary rat microglia [4]): 1%; LPS % cell toxicity (primary rat microglia [5]): 1% |
| NC(=O)CC[C@H](N)C(=O)O [L-glutamine, Glutamine (I)] | Q4 | – | – | – | – | – | – | – | Fibrin % inhibition [1, 9]: 4%; LPS % inhibition [2, 10]: 14%; Fibrin % cell toxicity (primary rat microglia [4]): 0%; LPS % cell toxicity (primary rat microglia [5]): 0% |
| CC(CCc1ccccc1)NCC(O)c1ccc(O)c(C(N)=O)c1 (stereo not shown) [Labetalol] | – | 1 | 1 | – | – | 32 | 30 | Q4 | – |
| CC(O)C(=O)O (stereo not shown) [Lactic Acid] | – | 1 | 1 | – | – | 0 | 14 | Q4 | – |
| N#Cc1ccc(C(c2ccc(C#N)cc2)n2cncn2)cc1 [Letrozole] | Q4 | 1 | 0 | 15 | 16 | – | – | – | – |
| c1ccc([C@H]2CN3CCSC3=N2)cc1 [Levamisole] | – | 0 | 0 | – | – | -15 | 12 | Q4 | – |
| N[C@@H](Cc1ccc(O)c(O)c1)C(=O)O [Levodopa] | Q4 | 1 | 0 | 17 | -5 | – | – | – | – |
| CC(C)(C)NC[C@H](O)c1ccc(O)c(CO)c1 [Levosalbutamol] | Q4 | 0 | 0 | -29 | 11 | – | – | – | – |
| Cl[C@H]1[C@H](Cl)[C@@H](Cl)[C@@H](Cl)[C@H](Cl)[C@H]1Cl [Lindane] | Q4 | 0 | 0 | 42 | 11 | – | – | – | – |

Reference: patent US20210330611A1, “THERAPY FOR NEUROLOGICAL DISEASES/DISORDERS” (priority 2020, published 2021)
